Data on 22 molecules can be found in patent publication US20080171760A1, “SPIROPIPERIDINE GLYCINAMIDE DERIVATIVES” (priority 2007, published 2008).

T1 sequence (P37288 whole entry): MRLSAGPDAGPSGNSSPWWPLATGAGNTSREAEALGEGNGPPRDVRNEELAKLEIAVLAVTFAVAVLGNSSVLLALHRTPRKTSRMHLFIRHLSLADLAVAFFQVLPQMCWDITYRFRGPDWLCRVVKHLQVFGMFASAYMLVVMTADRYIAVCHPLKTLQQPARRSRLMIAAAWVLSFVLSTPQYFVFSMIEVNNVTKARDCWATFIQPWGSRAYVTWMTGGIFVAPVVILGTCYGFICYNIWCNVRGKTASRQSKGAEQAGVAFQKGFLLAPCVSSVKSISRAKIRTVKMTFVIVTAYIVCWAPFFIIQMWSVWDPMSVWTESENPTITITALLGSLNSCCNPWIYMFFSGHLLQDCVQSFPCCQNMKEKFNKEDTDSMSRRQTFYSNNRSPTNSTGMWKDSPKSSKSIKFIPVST

This test has as its target T1, human V1a receptor (Homo sapiens, UniProt P37288).
T1 construct: expressed in transfected cells; host or cells: HEK293 cells, transiently transfected; cell membranes
Description: human V1a receptor binding study (3H-Vasopressin, SPA beads). The settings on record: membranes of HEK293 cells transiently transfected with human V1a receptor, Ki calculated using the Cheng-Prussoff equation, read-out: pKi hV1a (converted). How it is done:
The human V1a receptor was cloned by RT-PCR from total human liver RNA. The coding sequence was subcloned in an expression vector after sequencing to confirm the identity of the amplified sequence. […] Cell membranes were prepared from HEK293 cells transiently transfected with the expression vector and grown in 20 liter fermenters with the following protocol.
50 g of cells were resuspended in 30 ml freshly prepared ice cold Lysis buffer (50 mM HEPES, 1 mM EDTA, 10 mM MgCl2 adjusted to pH=7.4+complete cocktail of protease inhibitor (Roche Diagnostics)), homogenized with Polytron for 1 min, and sonicated on ice for 2×2 minutes at 80% intensity (Vibracell sonicator). The preparation was centrifuged 20 min at 500 g at 4° C., the pellet was discarded and the supernatant centrifuged 1 hour at 43,000 g at 4° C. (19,000 rpm). The pellet was resuspended in 12.5 ml Lysis buffer+12.5 ml Sucrose 20% and homogenized using a Polytron for 1-2 min. The protein concentration was determined by the Bradford method and aliquots are stored at −80° C. until use. For binding studies 60 mg Yttrium silicate SPA beads (Amersham) were mixed with an aliquot of membrane in binding buffer (50 mM Tris, 120 mM NaCl, 5 mM KCl, 2 mM CaCl2, 10 mM MgCl2) for 15 minutes with mixing. 50 ul of bead/membrane mixture was then added to each well of a 96 well plate, followed by 50 ul of 4 nM 3H-Vasopressin (American Radiolabeled Chemicals). For total binding measurement 100 ul of binding buffer were added to the respective wells, for non-specific binding 100 ul of 8.4 mM cold vasopressin and for compound testing 100 ul of a serial dilution of each compound in 2% DMSO. The plate was incubated 1 h at room temperature, centrifuged 1 min at 1000 g and counted on a Packard Top-Count. Non-specific binding counts were subtracted from each well and data was normalized to the maximum specific binding set at 100%. To calculate an IC 50 the curve was fitted using a non-linear regression model (XLfit) and the Ki is calculated using the Cheng-Prussoff equation.
`O=C(CNC(c1ccccc1)c1ccc(Cl)cc1)N1CCC2(CC1)OCc1ccccc12` (racemic) [Example 2, (RS)—N-[(4-Chlorophenyl)(phenyl)methyl]-2-oxo-2-(1′H,3H-spiro[2-benzofuran-1,4′-piperidin]-1′-yl)ethanamine]: the Ki was 9.12 nM. Take `O=C(CNC(c1ccccc1)c1cccc(Cl)c1)N1CCC2(CC1)OCc1ccccc12` (racemic) [Example 8, (RS)—N-[(3-Chlorophenyl)(phenyl)methyl]-2-oxo-2-(1′H,3H-spiro[2-benzofuran-1,4′-piperidin]-1′-yl)ethanamine]: the Ki was 14.8 nM.

For the molecule `O=C(CNC(c1ccccc1)c1ccc(Cl)c(Cl)c1)N1CCC2(CC1)OCc1ccccc12` (racemic) [Example 9, (RS)—N-[(3,4-Dichlorophenyl)(phenyl)methyl]-2-oxo-2-(1′H,3H-spiro[2-benzofuran-1,4′-piperidin]-1′-yl)ethanamine], the Ki is 14.5 nM.

For `O=C(CNC(c1ccccc1)c1cccc(C(F)(F)F)c1)N1CCC2(CC1)OCc1ccccc12` (racemic) [Example 12, (RS)-2-Oxo-N-{phenyl[3-(trifluoromethyl)phenyl]methyl}-2-(1′H,3H-spiro[2-benzofuran-1,4′-piperidin]-1′-yl)ethanamine], the Ki is 30.2 nM. For the molecule `O=C(CNC(c1ccc(F)cc1)c1cccc(C(F)(F)F)c1)N1CCC2(CC1)OCc1ccccc12` (racemic) [Example 13, (RS)—N-{(4-Fluorophenyl)[3-(trifluoromethyl)phenyl]methyl}-2-oxo-2-(1′H,3H-spiro[2-benzofuran-1,4′-piperidin]-1′-yl)ethanamine], the Ki was 29.5 nM.

On to `O=C(CNC(c1ccccc1)c1ccc(C(F)(F)F)cc1)N1CCC2(CC1)OCc1ccccc12` (racemic) [Example 18, (RS)-2-Oxo-N-{phenyl[4-(trifluoromethyl)phenyl]methyl}-2-(1′H,3H-spiro[2-benzofuran-1,4′-piperidin]-1′-yl)ethanamine], for which the Ki is 20.9 nM.

Take `O=C(CNC(c1ccccc1)c1cccs1)N1CCC2(CC1)OCc1ccccc12` (racemic) [Example 20, (RS)-2-Oxo-N-[phenyl(2-thienyl)methyl]-2-(1′H,3H-spiro[2-benzofuran-1,4′-piperidin]-1′-yl)ethanamine]: the Ki is 9.12 nM.

`O=C(CNC(c1ccccc1)c1ccccn1)N1CCC2(CC1)OCc1ccccc12` (racemic) [Example 27, (RS)-2-Oxo-N-[phenyl(pyridin-2-yl)methyl]-2-(1′H,3H-spiro[2-benzofuran-1,4′-piperidin]-1′-yl)ethanamine]: the Ki was 18.2 nM.

Turning to `O=C(CNC(c1ccc(F)cc1)c1cccs1)N1CCC2(CC1)OCc1ccccc12` (racemic) [Example 29, (RS)—N-[(4-Fluorophenyl)(2-thienyl)methyl]-2-oxo-2-(1′H,3H-spiro[2-benzofuran-1,4′-piperidin]-1′-yl)ethanamine], the Ki was 15.8 nM. In the case of `Cc1n[nH]c(C)c1C(NCC(=O)N1CCC2(CC1)OCc1ccccc12)c1ccccc1` (racemic) [Example 30, (RS)—N-[(3,5-Dimethyl-1H-pyrazol-4-yl)(phenyl)methyl]-2-oxo-2-(1′H,3H-spiro[2-benzofuran-1,4′-piperidin]-1′-yl)ethanamine], the Ki was 23.4 nM. The value for `Cc1cccc(C(NCC(=O)N2CCC3(CC2)OCc2ccccc23)c2ccccc2)c1` (racemic) [Example 34, (RS)—N-[(3-Methylphenyl)(phenyl)methyl]-2-oxo-2-(1′H,3H-spiro[2-benzofuran-1,4′-piperidin]-1′-yl)ethanamine] was 18.6 nM; that for `O=C(CNC(c1ccccc1)c1cc(Cl)ccc1O)N1CCC2(CC1)OCc1ccccc12` (racemic) [Example 37, (RS)-4-Chloro-2-[{[2-oxo-2-(1′H,3H-spiro[2-benzofuran-1,4′-piperidin]-1′yl)ethyl]amino}(phenyl)methyl]phenol] was 14.5 nM. The value for `C[C@](O)(c1ccccn1)[C@H](NCC(=O)N1CCC2(CC1)OCc1ccccc12)c1ccc(Cl)cc1` (racemic) [Example 49, (1RS,2RS)-1-(4-Chlorophenyl)-1-{[2-oxo-2-(1′H,3H-spiro[2-benzofuran-1,4′-piperidin]-1′-yl)ethyl]amino}-2-pyridin-2-yl-propan-2-ol] was 18.6 nM; that for `O=C(CNC(c1cccc(Cl)c1)c1ncco1)N1CCC2(CC1)OCc1ccccc12` (racemic) [Example 68, (RS)—N-[(3-Chlorophenyl) (1,3-oxazol-2-yl)methyl]-2-oxo-2-(1′H,3H-spiro [2-benzofuran-1,4′-piperidin]-1′-yl)ethanamine] was 8.51 nM; that for `O=C(CN[C@@H](c1ccccc1)c1ccc(Cl)cc1)N1CCC2(CC1)OCc1ccccc12` (single isomer, unassigned) [Example 4, N-[(+)-(4-chlorophenyl)(phenyl)methyl]-2-oxo-2-(1′H,3H-spiro[2-benzofuran-1,4′-piperidin]-1′-yl)ethanamine] was 20.4 nM.

Consider `O=C(CNC(c1ccccc1)c1ccccc1)N1CCC2(CC1)OCc1ccccc12` [Example 6, N-(Diphenylmethyl)-2-oxo-2-(1′H,3H-spiro[2-benzofuran-1,4′-piperidin]-1′-yl)ethanamine], for which the Ki was 11.7 nM.

For `O=C(Nc1ccc(Cl)cc1)[C@H](NCC(=O)N1CCC2(CC1)OCc1ccccc12)c1ccccc1` [Example 31, (2R)—N-(4-Chlorophenyl)-2-{[2-oxo-2-(1′H,3H-spiro[2-benzofuran-1,4′-piperidin]-1′-yl)ethyl]amino}-2-phenylacetamide], the Ki is 42.7 nM. The value for `O=C(CN[C@H](c1ccc(Cl)cc1)[C@@H](O)c1ccc(N2CCOCC2)cc1)N1CCC2(CC1)OCc1ccccc12` [Example 46] was 24 nM; that for `CC(O)(c1ccncc1)C(NCC(=O)N1CCC2(CC1)OCc1ccccc12)c1ccc(Cl)cc1` (stereo not shown) [Example 52, 1-(4-Chlorophenyl)-1-{[2-oxo-2-(1′H,3H-spiro[2-benzofuran-1,4-piperidin]-1′-yl)ethyl]amino}-2-pyridin-4-ylpropan-2-ol] was 26.3 nM; that for `O=C(CN[C@@H](C(=O)N1CC(O)C1)c1ccccc1)N1CCC2(CC1)OCc1ccccc12` [Example 71, 1-[(2R)-2-{[2-Oxo-2-(1′H,3H-spiro[2-benzofuran-1,4′-piperidin]-1′-yl)ethyl]amino}-2-phenylacetyl]azetidin-3-ol] was 79.4 nM. The value for `O=C1OC2(CCN(C(=O)CNC(c3ccccc3)c3ccccc3)CC2)c2ccccc21` [Example 92, 1′-[N-(Diphenylmethyl)glycyl]-3H-spiro[2-benzofuran-1,4′-piperidin]-3-one] was 42.7 nM. To `CN(CC(=O)N1CCC2(CC1)OCc1ccccc12)C(c1ccccc1)c1ccccc1` [Example 93, N-(Diphenylmethyl)-N-methyl-2-oxo-2-(1′H,3H-spiro[2-benzofuran-1,4′-piperidin]-1′-yl)ethanamine] belongs 28.2 nM.
